Assay results reported in US20260152533A1, “COMBINATION INHIBITORS FOR TREATING FIBROSIS” (Memorial Sloan-Kettering Cancer Center, priority 2021, published 2026).

Columns and labels:
[1] = test system: mammary fibroblasts (MFBs); assay: Western blot of MFBs; format: cell-based, mouse; settings: TGFβ
Description: NIH-3T3 cells were obtained from ATCC (CRL-1658); 293 T cells were obtained from ATCC (CRL-3216). PSCs were isolated from C57BL/6 mice by differential centrifugation as previously described^49 and their mesenchymal origin was validated by analyzing the expression of various mesenchymal and epithelial markers. MFBs were isolated from FVB/N mice by differential centrifugation as previously described^50. DB7 mouse breast cancer cells were obtained from Alexander Borowsky (University of California Davis Comprehensive Cancer Center, Sacramento, CA, USA) through an MTA to Ohio State University (OSU). KPC (Kras^LSL-G12D; Trp53^LSL-R172H; Pdx1-Cre) mouse PDAC cells were a gift from Scott Lowe (Memorial Sloan Kettering Cancer Center. (MSKCC)). […]
Lysates were generated by incubating cells or ground tumors in RIPA buffer (Millipore); […] of cleared lysate were analyzed by SDS-polyacrylamide gel electrophoresis (SDS-PAGE) as previously described^11. […] Quantification of band intensities of collagen I relative to […] or vinculin in tumor allograft experiments was performed with Image Lab software v6.0 (Bio-Rad).

[2] = test system: pancreatic stellate cells (PSCs); assay: Collagen abundance in ECM derived from confluent PSCs; format: cell-based, mouse; settings: Gln 20% or lower, TGFβ (FIG. 8C)
Procedure: Culture plates were coated with 0.1% gelatin (Sigma) and treated with 1% glutaraldehyde (Sigma) and 1 M ethanolamine (Sigma). Confluent NIH-3T3 cells, MFBs or PSCs were grown for 6 days on coated plates in the presence of […] sodium ascorbate (Sigma) and treated as indicated, and the medium was replaced every other day. Plates were decellularized with 20 mM ammonium hydroxide/0.5% Triton-X 100 for 5 min on a rotating platform. Three times the volume of PBS was added, and ECM was equilibrated overnight at 4° C., followed by four additional PBS washes. For western blot, preheated sample buffer supplemented with 1 mM dithiothreitol (DTT) was added, ECM was scraped off and boiled, and proteins were separated by SDS-PAGE followed by immunoblotting. To measure collagen abundance, fibroblast-derived ECM was stained with the Picro Sirius Red Stain Kit (Abcam) according to the manufacturer's instructions. The stain was extracted with 0.1 M sodium hydroxide (NaOH) and optical density was measured at 550 nm using a microplate reader. Differences in cell number were controlled for by growing cells on separate plates under the same experimental conditions.

## TGFβ: transforming growth-factor beta; TGFβ-1 purchased from Peprotech
[1]; 20% Gln, 48 hours
  collagen I production: unable to proliferate and produce collagen I
[1]; low Gln (20%), 48 hours (FIG. 8K)
  GCN2 phosphorylation: showed GCN2 phosphorylation
[2]
  collagen accumulation in the ECM: could no longer stimulate
